Experimental data: the NIST ThermoML archive (doi:10.1016/j.fluid.2015.10.026)
± gives the expanded uncertainty stated by the source.

Details: Liquid, Brillouin light scattering

Cc1ccccc1 [toluene]
speed of sound (323.15 K): 1200.8 ± 6 m/s | speed of sound (373.15 K): 1000 ± 5 m/s | speed of sound (423.15 K): 806 ± 5.2 m/s | speed of sound (473.15 K): 616.2 ± 3.3 m/s | speed of sound (523.15 K): 425.5 ± 2.4 m/s
